Measurements reported in patent US20140329868A1, “METHODS FOR TREATING HYPERTENSION” (TAKEDA PHARMACEUTICALS U.S.A., INC., priority 2005, published 2014).

Columns and labels:
[1] = system: oxonic acid (OA)-induced hyperuricemic model in Sprague-Dawley rats; experiment: Example 4: systolic blood pressure by tail cuff in conscious normal and OA-dosed rats; format: in vivo; settings: FIG. 2
Protocol: Materials and Methods. To produce hyperuricemia, rats received OA (Sigma, St Louis Mo., USA) 750 mg/kg body weight daily by gastric gavage. To investigate the treatment effect of febuxostat (also referred to herein as “Fx”), the drug was administered in drinking water at 50 mg/L (approximately 5-6 mg/kg/day) four weeks after OA dosing while the respective controls received 5.84 mg/L of NaCl in drinking water (to maintain a salt concentration equivalent to the Febuxostat-containing water). […] Body weight, food and water intakes were measured daily. Systolic blood pressure, obtained in conscious rats by a tail cuff sphygmomanometer, and plasma uric acid were measured in all animals at baseline and at the end of four and eight weeks. […]
Evaluation. Food and water intake were determined daily. Systolic blood pressure (hereinafter “SBP”) was measured in conscious animals by a tail cuff sphygmomanometer using an automated system (XBP-100, Kent Scientific Co, USA). […] Plasma UA, insulin and triglycerides were quantified using commercial kits (Diagnostic Chemicals Ltd, USA; Crystalchem, USA and Spinreact, Spain, respectively).
Statistical Analysis. Values were expressed as mean±standard error of the mean (hereinafter “SEM”). In the study, values from the respective four treatment groups were analyzed by one-way analysis of variance (hereinafter “ANOVA”). […]

[2] = Example 4: body weight, food and water intake, side effects in normal and OA-dosed rats; format: in vivo, Sprague-Dawley rats
Protocol: Materials and Methods. To produce hyperuricemia, rats received OA (Sigma, St Louis Mo., USA) 750 mg/kg body weight daily by gastric gavage. To investigate the treatment effect of febuxostat (also referred to herein as “Fx”), the drug was administered in drinking water at 50 mg/L (approximately 5-6 mg/kg/day) four weeks after OA dosing while the respective controls received 5.84 mg/L of NaCl in drinking water (to maintain a salt concentration equivalent to the Febuxostat-containing water). The following four groups (n=10-11) were included in the study: Group 1, normal control rats which received no treatment for eight weeks; Group 2, Normal+Febuxostat rats which received no treatment for four weeks and then were treated with febuxostat for four weeks from Weeks 5 to 8; Group 3, OA rats which received OA for eight weeks; and Group 4, OA+Febuxostat rats which received OA for eight weeks and febuxostat for four weeks from Weeks 5 to 8. Body weight, food and water intakes were measured daily. Systolic blood pressure, obtained in conscious rats by a tail cuff sphygmomanometer, and plasma uric acid were measured in all animals at baseline and at the end of four and eight weeks. A renal micropuncture procedure along with systemic arterial blood pressure monitoring under pentobarbital anesthesia were performed at the end of eight weeks followed by morphologic evaluation of the renal preglomerular microvasculature.
Evaluation. Food and water intake were determined daily. Systolic blood pressure (hereinafter “SBP”) was measured in conscious animals by a tail cuff sphygmomanometer using an automated system (XBP-100, Kent Scientific Co, USA). All animals were preconditioned for blood pressure measurements one week before each experiment. Plasma UA, insulin and triglycerides were quantified using commercial kits (Diagnostic Chemicals Ltd, USA; Crystalchem, USA and Spinreact, Spain, respectively).
Statistical Analysis. Values were expressed as mean±standard error of the mean (hereinafter “SEM”). In the study, values from the respective four treatment groups were analyzed by one-way analysis of variance (hereinafter “ANOVA”). When the ANOVA p value was <0.05, the following comparisons were made using Bonferroni multiple comparison test: Normal Control vs. Normal+Fx, Normal Control vs. OA, Normal Control vs. OA+Fx and OA vs. OA+Fx. Pair wise comparisons were performed using contrast within the framework of the statistical model.

[3] = system: subjects having a systolic BP≧160 mmHg or diastolic BP≧95 mmHg (elevated blood pressure); experiment: Example 2: blood pressure change in subjects with elevated blood pressure, none taking angiotensin-converting enzyme inhibitors (two double-blind studies); format: in vivo, human
Protocol: None of these subjects were taking any angiotensin-coverting enzyme inhibitors, but might have been taking some other type of antihypertensive drug at the baseline (start) of the study. These 158 subjects were part of two (2) DB studies. One study was of 28 weeks in duration during which subjects received 80 mg, 120 mg or 240 mg QD of febuxostat or placebo or allopurinol 300 or 100 mg QD, depending on the subject's renal function. The second study was 52 weeks in duration during which subjects received 80 mg or 120 mg QD of febuxostat or allopurinol 300 mg QD. […] A total of 52 weeks of treatment was completed by 15 subjects in the febuxostat 80 mg QD group, 9 in the febuxostat 120 mg QD group and 17 in the allopurinol 300/100 mg QD group. Because of the shorter duration of one of the two DB studies, no subject in the placebo and febuxostat 240 mg QD groups was treated for 52 weeks.

[4] = Normal + Fx rats, End of Week 4 (before Fx)
[5] = Normal + Fx rats, End of Week 8
[6] = Normal + Fx rats, Week 1 (before Fx)
[7] = Normal + Fx rats, Week 4 (before Fx)
[8] = OA + Fx rats, End of Week 4 (before Fx)
[9] = OA + Fx rats, Week 1 (before Fx)
[10] = OA + Fx rats, Week 4 (before Fx)
[11] = 80 mg QD, after 4 weeks of treatment
[12] = 80 mg QD, after 28 weeks of treatment
[13] = 80 mg QD, after 52 weeks of treatment
[14] = 120 mg QD, after 4 weeks of treatment
[15] = 120 mg QD, after 28 weeks of treatment
[16] = 120 mg QD, after 52 weeks of treatment
[17] = 240 mg QD, after 4 weeks of treatment
[18] = 240 mg QD, after 28 weeks of treatment

## Cc1nc(-c2ccc(OCC(C)C)c(C#N)c2)sc1C(=O)O [febuxostat, 2-[3-cyano-4-(2-methylpropoxy)phenyl]-4-methylthiazole-5-carboxylic acid]
[1]; OA-dosed conscious rats
  systolic blood pressure by tail cuff (effect in words): significant but partial decrease in systolic BP
[1]; normal conscious rats
  systolic blood pressure by tail cuff (effect in words): did not alter blood pressure in normal rats
[2]; Normal + Fx rats, Baseline (Fx 50 mg/L in drinking water Weeks 5 to 8), mean ± SEM
  BW: 319.9 ± 3.0 gr
[2]; [4]
  % BW gain from baseline: 11.9 ± 1.8%
  BW: 359.3 ± 7.2 gr
[2]; [5]
  % BW gain from Week 4: 6.6 ± 0.8 %
  % BW gain from baseline: 18.7 ± 1.8%
  BW: 377.7 ± 7.5 gr
[2]; [6]
  Daily Food intake: 18.3 ± 0.6 gr
  Daily Water intake: 34.5 ± 2.4 mL
[2]; [7]
  Daily Food intake: 16.0 ± 0.7 gr
  Daily Water intake: 32.3 ± 1.4 mL
[2]; Normal + Fx rats, Week 8
  Daily Food intake: 18.0 ± 0.4 gr
  Daily Water intake: 39.7 ± 1.7 mL
[2]; OA + Fx rats, Baseline (Fx 50 mg/L in drinking water Weeks 5 to 8), mean ± SEM
  BW: 323.6 ± 3.2 gr
[2]; [8]
  % BW gain from baseline: 6.7 ± 1.7%
  BW: 345.3 ± 5.7 gr
[2]; OA + Fx rats, End of Week 8
  % BW gain from Week 4: 5.2 ± 0.7 %
  % BW gain from baseline: 12.3 ± 1.9%
  BW: 363.2 ± 5.7 gr
[2]; [9]
  Daily Food intake: 15.1 ± 0.7 gr
  Daily Water intake: 36.6 ± 2.2 mL
[2]; [10]
  Daily Food intake: 17.4 ± 0.7 gr
  Daily Water intake: 33.8 ± 2.4 mL
[2]; OA + Fx rats, Week 8
  Daily Food intake: 18.6 ± 0.4 gr
  Daily Water intake: 42.6 ± 2.3 mL
[2]; all rats, eight-week study
  behaviour and side effects: no side effects were observed
[3]; [11]
  mean change from baseline for diastolic BP: −4.7 mmHg
  mean change from baseline for mean arterial BP: −5.5 mmHg
  mean change from baseline for systolic BP: −7.2 mmHg
[3]; [12]
  mean change from baseline for diastolic BP: −8.7 mmHg
  mean change from baseline for mean arterial BP: −9.2 mmHg
  mean change from baseline for systolic BP: −10.4 mmHg
[3]; [13]
  mean change from baseline for diastolic BP: −8.1 mmHg
  mean change from baseline for mean arterial BP: −8.5 mmHg
  mean change from baseline for systolic BP: −9.5 mmHg
[3]; [14]
  mean change from baseline for diastolic BP: −7.2 mmHg
  mean change from baseline for mean arterial BP: −7.6 mmHg
  mean change from baseline for systolic BP: −8.3 mmHg
[3]; [15]
  mean change from baseline for diastolic BP: −7.5 mmHg
  mean change from baseline for mean arterial BP: −8.7 mmHg
  mean change from baseline for systolic BP: −11.0 mmHg
[3]; [16]
  mean change from baseline for diastolic BP: −7.2 mmHg
  mean change from baseline for mean arterial BP: −11.3 mmHg
  mean change from baseline for systolic BP: −19.4 mmHg
[3]; [17]
  mean change from baseline for diastolic BP: −9.3 mmHg
  mean change from baseline for mean arterial BP: −12.5 mmHg
  mean change from baseline for systolic BP: −18.9 mmHg
[3]; [18]
  mean change from baseline for diastolic BP: −10.0 mmHg
  mean change from baseline for mean arterial BP: −12.9 mmHg
  mean change from baseline for systolic BP: −18.8 mmHg
